The record followed here is paper PMC5789640, “Depletion of Arabidopsis ACYL-COA-BINDING PROTEIN3 Affects Fatty Acid Composition in the Phloem” (Frontiers in Plant Science, 2018).

Each structure is given as a SMILES string.

In the assay the target is T1, (His)6-AtACBP3 (Arabidopsis thaliana, UniProt Q9STX1).
T1 construct: gene ACBP3; plasmid pAT223, E. coli BL21(DE3) pLysS
T1 sequence (Q9STX1 23-362): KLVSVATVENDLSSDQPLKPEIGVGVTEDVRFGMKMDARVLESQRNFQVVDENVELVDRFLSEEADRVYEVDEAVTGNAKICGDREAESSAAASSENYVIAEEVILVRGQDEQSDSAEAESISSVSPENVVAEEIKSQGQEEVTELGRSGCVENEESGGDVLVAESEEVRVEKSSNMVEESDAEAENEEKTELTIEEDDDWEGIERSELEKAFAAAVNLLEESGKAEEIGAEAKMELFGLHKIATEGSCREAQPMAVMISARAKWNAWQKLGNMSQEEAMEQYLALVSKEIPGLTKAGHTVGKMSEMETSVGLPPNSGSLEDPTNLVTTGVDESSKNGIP
Briefly: isothermal titration calorimetry. Type of assay: binding. From the text:
isothermal titration calorimetry on (His)6-AtACBP3
Background: ITC needs no label: the signal is the heat of the interaction.
What is called Kd is the concentration at which binding is half-saturated. Lower therefore signals higher affinity. Compound `CCCCCCCCCCCC(=O)SCCNC(=O)CCNC(=O)[C@H](O)C(C)(C)COP(=O)(O)OP(=O)(O)OC[C@H]1O[C@@H](n2cnc3c(N)ncnc32)[C@H](O)[C@@H]1OP(=O)(O)O` [C12:0-CoA ester] returned a Kd of 33.1 ± 13 µM.
The value for `CCCCCCCCCCCCCC(=O)SCCNC(=O)CCNC(=O)[C@H](O)C(C)(C)COP(=O)(O)OP(=O)(O)OC[C@H]1O[C@@H](n2cnc3c(N)ncnc32)[C@H](O)[C@@H]1OP(=O)(O)O` [C14:0-CoA ester] was 4 ± 0.6 µM; that for `CCCCCC/C=C\CCCCCCCC(=O)SCCNC(=O)CCNC(=O)[C@H](O)C(C)(C)COP(=O)(O)OP(=O)(O)OC[C@H]1O[C@@H](n2cnc3c(N)ncnc32)[C@H](O)[C@@H]1OP(=O)(O)O` [C16:1-CoA ester] was 5.1 ± 1.9 µM; that for `CCCCCCCCCCCCCCCCC(=O)SCCNC(=O)CCNC(=O)[C@H](O)C(C)(C)COP(=O)(O)OP(=O)(O)OC[C@H]1O[C@@H](n2cnc3c(N)ncnc32)[C@H](O)[C@@H]1OP(=O)(O)O` [C17:0-CoA ester] was 21 ± 4.7 µM.
Compound `CCCCC/C=C\C/C=C\CCCCCCCC(=O)SCCNC(=O)CCNC(=O)[C@H](O)C(C)(C)COP(=O)(O)OP(=O)(O)OC[C@H]1O[C@@H](n2cnc3c(N)ncnc32)[C@H](O)[C@@H]1OP(=O)(O)O` [C18:2-CoA ester] registered a Kd of 13.4 ± 1.4 µM.
The figure for `CC/C=C\C/C=C\C/C=C\CCCCCCCC(=O)SCCNC(=O)CCNC(=O)[C@H](O)C(C)(C)COP(=O)(O)OP(=O)(O)OC[C@H]1O[C@@H](n2cnc3c(N)ncnc32)[C@H](O)[C@@H]1OP(=O)(O)O` [C18:3-CoA ester] is 8.6 ± 2 µM.
